Assay results: patent US20170333391A1, “METHOD FOR DELAYING THE ONSET OF PULMONARY FIBROSIS OR TREATING PULMONARY FIBROSIS” (EVERFRONT BIOTECH INC., priority 2016, published 2017)

Tests used:
type I collagen = experiment: Type I collagen expression in TGF-β1-induced NHLF, western blotting (2-2); assay type: cell-based, human; conditions: TGF-β1-only control group = 1
Procedure: (§1) Normal Human lung fibroblasts (NHLF) were seeded into 6 cm culture dishes at a density of 2×10^5 cells/dish, comprising a control group and six experimental groups (7 dishes in total). The cells were cultured until the next day, and then the mediums were removed. Each group was respectively treated under the following conditions to conduct follow-up experiments: • (1) Positive control group: cells were cultured in a FGM-2 medium containing 1% serum and TGF-β1 (5 ng/ml) for 36 hours; • (2) Group I: cells were firstly cultured in a FGM-2 medium containing 1% serum and TGF-β1 (5 ng/ml) for 12 hours, and then compound (1) was added into the medium to provide a final concentration of 15 μg/ml; thereafter, the cells were cultured for another 24 hours; • (3) Group II: cells were firstly cultured in a FGM-2 medium containing 1% serum and TGF-β1 (5 ng/ml) for 12 hours, and then compound (1) was added into the medium to provide a final concentration of 25 μg/ml; thereafter, the cells were cultured for another 24 hours; • (4) Group III: cells were firstly cultured in a FGM-2 medium containing 1% serum and TGF-β1 (5 ng/ml) for 12 hours, and then compound (1) was added into the medium to provide a final concentration of 35 μg/ml; thereafter, the cells were cultured for another 24 hours; • (5) Group IV: cells were firstly cultured in a FGM-2 medium containing 1% serum and TGF-β1 (5 ng/ml) for 12 hours, and then the Pirfenidone was added into the medium to provide a final concentration of 100 μg/ml; thereafter, the cells were cultured for another 24 hours; • (6) Group V: cells were firstly cultured in a FGM-2 medium containing 1% serum and TGF-β1 (5 ng/ml) for 12 hours, and then the Pirfenidone was added into the medium to provide a final concentration of 250 μg/ml; thereafter, the cells were cultured for another 24 hours; and • (7) Group VI: cells were firstly cultured in a FGM-2 medium containing 1% serum and TGF-β1 (5 ng/ml) for 12 hours, and then the Pirfenidone was added into the medium to provide a final concentration of 500 μg/ml; thereafter, the cells were cultured for another 24 hours.
(§2) Thereafter, the proteins in the cells of each group were extracted, and the expressions of type I collagen, BMP-7 protein and TGF-β protein in the NHLF cells of each group were measured with western blotting. The results of the control group served as the basis for calculating the relative expression levels of the other groups.

TGF-β protein = TGF-β protein expression in TGF-β1-induced NHLF, western blotting (2-2); assay type: cell-based, human; conditions: TGF-β1-only control group = 1
Procedure: as §1, §2

[1] = system: C57B/L6 mice injected with Bleomycin sulfate (inducer of pulmonary fibrosis); experiment: Pulmonary fibrosis score (Ashcroft, 0 to 8) in Bleomycin sulfate mice; assay type: in vivo; conditions: compared to oil group
Procedure: (§3) 24 C57B/L6 mice (age: four weeks) were separated into four groups (6 mice in each group). […]
After completing the measurement of the pulmonary function in Example 6, the mice were sacrificed. […] One of the two groups was preserved at −20° C. for the follow-up experiment, and the other group was analyzed by hematoxylin-sosin stain (H&E stain). […]

IL-β = IL-β mRNA in mouse pulmonary tissue, RT-PCR; assay type: in vivo, mice; conditions: Bleomycin sulfate, normal control = 1, oil group = 2.34
Excerpt: as §3
Then, for another portion of ground samples of each group, the total RNAs were extracted using an RNeasy Mini Kit. The QuantiTect Reverse Transcription Kit was used to conduct reverse transcription on the total RNA to obtain the cDNA. […]

[2] = Group I: TGF-β1 5 ng/ml 12 h, then compound (1) 15 μg/ml 24 h
[3] = Group II: TGF-β1 5 ng/ml 12 h, then compound (1) 25 μg/ml 24 h
[4] = Group III: TGF-β1 5 ng/ml 12 h, then compound (1) 35 μg/ml 24 h

**Q.** `CCCC=C1OC(=O)c2ccccc21` [compound (1)] was tested. Which “Relative expression level (fold) Type I collagen” value (type I collagen; [2]) did it give?
**A.** 0.79 fold

**Q.** And the “Relative expression level (fold) Type I collagen” value (type I collagen; [3])?
**A.** 0.30 fold

**Q.** What about the “Relative expression level (fold) Type I collagen” value (type I collagen; [4]) of the same compound?
**A.** 0.51 fold

**Q.** And the “Relative expression level (fold) TGF-β protein” value (TGF-β protein; [2])?
**A.** 0.81 fold

**Q.** What about the “Relative expression level (fold) TGF-β protein” value (TGF-β protein; [3]) of the same compound?
**A.** 0.77 fold

**Q.** And the “Relative expression level (fold) TGF-β protein” value (TGF-β protein; [4])?
**A.** 0.58 fold

**Q.** And the pulmonary fibrosis score ([1]; High-dose group, compound (1) 50 mg/kg orally daily 30 days)?
**A.** significantly decreased

**Q.** What about the pulmonary fibrosis score ([1]; Low-dose group, compound (1) 10 mg/kg orally daily 30 days) of the same compound?
**A.** significantly decreased

**Q.** And the “Relative expression level (fold) IL-β” value (IL-β; High-dose group: mRNA in pulmonary tissue, compound (1) 50 mg/kg-body weight orally every day for 30 days)?
**A.** 0.52 fold

**Q.** What about the “Relative expression level (fold) IL-β” value (IL-β; Low-dose group: mRNA in pulmonary tissue, compound (1) 10 mg/kg-body weight orally every day for 30 days) of the same compound?
**A.** 1.02 fold
